What was measured:
wild-type βGT = wild-type βGT (Enterobacteria phage T4, UniProt P04547)
Taq polymerase = target: T1, Taq polymerase (Thermus aquaticus, UniProt P19821); test: Primer extension assay on 40-mer DNA template; assay type: biochemical; conditions: streptavidin added (6 eq.-48 eq.), 72° C., 1 min
T1 construct: purchased Sigma
From the text: FIGS. 9A-9B. The streptavidin adduct of biotin-5-N3-gmC hinders primer extension. (A) Sequence of 40 mer DNA containing cytosines derivatives used in primer extension. Cytosine 25, counting from right to left, with an asterisk presented the modified cytosines in the sequences, and also the position at which DNA polymerases tended to stall when the streptavidine adduct of biotin-5-N3-gmC-containing DNA was used as template. The arrow corresponded to the reverse PCR primer used for primer extension. (B) Primer extension assays for 40 mer DNA containing different cytosine species, shown beside a Sanger sequencing ladder. […] Position with the most significant stalling was position 24, one base before the modified position, although significant stalling still observed in the modified position (position 25, arrow). Primer extension using Sigma TaqRED polymerase, extension at 72° C. for 1 min. Sequencing ladder was performed with Sequenase from USB.
The properties of 5-hmC in duplex DNA are quite similar to those of 5-mC in terms of its sensitivity toward enzymatic reactions such as restriction enzyme digestion and polymerization (Flusberg et al., 2010; Josse and Kornberg, 1962; Lariviere and Morera, 2004). In an attempt to develop a method to differentiate these two bases in DNA, primer extension with a biotin-N3-5-gmC-modified DNA template was tested. […]

MspI [1] = target: T2, MspI (Moraxella sp, UniProt P11405); test: MspI digestion of 32-mer dsDNA with C*CGG; conditions: 100 U MspI, 1 hr, 37° C.
TaqαI = target: T3, TaqαI (Thermus aquaticus, UniProt P14386); test: TaqαI digestion of 32-mer dsDNA with T*CGA; conditions: 100 U TaqαI, 1 hr, 65° C.
T3 sequence (P14386 1-263): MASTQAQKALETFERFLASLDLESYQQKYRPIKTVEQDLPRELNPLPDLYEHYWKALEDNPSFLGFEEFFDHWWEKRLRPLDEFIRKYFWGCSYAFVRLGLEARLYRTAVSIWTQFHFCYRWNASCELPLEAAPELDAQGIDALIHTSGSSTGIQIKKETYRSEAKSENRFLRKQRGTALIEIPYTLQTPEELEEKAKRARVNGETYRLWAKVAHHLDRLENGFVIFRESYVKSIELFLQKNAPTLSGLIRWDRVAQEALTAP

MspI [2] = target: T2, MspI; test: MspI restriction digestion of 40-mer DNA with CC*GG; assay type: biochemical; conditions: 40-mer duplex DNA
From the text: FIG. 2. Restriction enzyme digestion assay of a 40 mer DNA with CC*GG (where C*=C, 5-meC, 5-hmC, or 5-gmC).
The inventors tested a restriction enzyme digestion assay with a 40-mer DNA containing a CC*GG (C*=C, 5-meC, 5-hmC, or 5-gmC) sequence in the middle. […] With bulkier groups on 5-hmC, digestions by other restriction enzymes that recognize DNA sequences containing CpG can be blocked.

HpaII = HpaII (Haemophilus parainfluenzae, UniProt P36433); assay type: biochemical; conditions: 40-mer DNA
[3] = system: four different polymerases; test: Primer extension and PCR with 5-gmC-containing DNA; assay type: biochemical
From the text: The inventors synthesized the phosphoramidite of 5-hmC (now commercially available from Glen Research) and prepared duplex DNA with 5-hmC incorporated at specific locations.

T2 sequence (P11405 whole entry): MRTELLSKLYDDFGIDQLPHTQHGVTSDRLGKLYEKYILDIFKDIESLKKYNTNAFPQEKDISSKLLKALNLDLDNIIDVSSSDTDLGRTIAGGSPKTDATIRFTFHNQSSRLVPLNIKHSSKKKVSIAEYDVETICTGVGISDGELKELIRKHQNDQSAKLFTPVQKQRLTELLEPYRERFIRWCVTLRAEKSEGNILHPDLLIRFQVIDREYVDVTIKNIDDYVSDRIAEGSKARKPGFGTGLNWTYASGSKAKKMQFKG
Chain of wild-type βGT (P04547 with tags, fused parts or gaps): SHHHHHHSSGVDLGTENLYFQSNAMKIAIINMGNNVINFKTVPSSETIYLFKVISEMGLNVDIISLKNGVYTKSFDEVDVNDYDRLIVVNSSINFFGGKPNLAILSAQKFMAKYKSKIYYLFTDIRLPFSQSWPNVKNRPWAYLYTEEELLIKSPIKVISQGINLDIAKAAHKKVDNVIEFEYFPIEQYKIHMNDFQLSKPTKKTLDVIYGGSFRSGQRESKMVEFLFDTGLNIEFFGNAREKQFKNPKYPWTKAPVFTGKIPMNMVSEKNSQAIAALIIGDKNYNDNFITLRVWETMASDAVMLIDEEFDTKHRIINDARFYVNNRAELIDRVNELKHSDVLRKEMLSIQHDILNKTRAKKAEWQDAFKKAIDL
T1 sequence (P19821 whole entry): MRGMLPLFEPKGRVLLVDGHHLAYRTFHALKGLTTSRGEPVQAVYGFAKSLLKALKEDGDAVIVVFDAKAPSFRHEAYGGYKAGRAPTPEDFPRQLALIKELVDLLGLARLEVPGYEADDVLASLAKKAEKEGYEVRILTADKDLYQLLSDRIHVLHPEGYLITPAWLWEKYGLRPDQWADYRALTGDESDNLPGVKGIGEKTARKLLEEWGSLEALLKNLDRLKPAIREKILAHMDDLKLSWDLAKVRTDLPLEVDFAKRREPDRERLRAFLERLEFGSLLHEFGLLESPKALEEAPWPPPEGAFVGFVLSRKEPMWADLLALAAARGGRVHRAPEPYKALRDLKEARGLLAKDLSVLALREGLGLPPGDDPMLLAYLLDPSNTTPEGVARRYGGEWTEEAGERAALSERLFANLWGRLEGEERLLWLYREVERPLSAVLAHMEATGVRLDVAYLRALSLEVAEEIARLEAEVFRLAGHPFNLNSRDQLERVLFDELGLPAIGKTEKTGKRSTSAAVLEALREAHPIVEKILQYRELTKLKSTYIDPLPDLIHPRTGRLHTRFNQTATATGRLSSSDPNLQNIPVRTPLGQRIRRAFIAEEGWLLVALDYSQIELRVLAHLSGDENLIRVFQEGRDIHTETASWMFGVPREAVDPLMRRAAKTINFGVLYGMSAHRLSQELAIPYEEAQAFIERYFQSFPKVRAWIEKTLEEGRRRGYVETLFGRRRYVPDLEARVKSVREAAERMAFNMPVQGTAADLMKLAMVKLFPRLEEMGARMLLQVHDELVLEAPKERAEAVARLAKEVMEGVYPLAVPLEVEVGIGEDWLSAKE
Chain of HpaII (P36433 whole entry, looked up): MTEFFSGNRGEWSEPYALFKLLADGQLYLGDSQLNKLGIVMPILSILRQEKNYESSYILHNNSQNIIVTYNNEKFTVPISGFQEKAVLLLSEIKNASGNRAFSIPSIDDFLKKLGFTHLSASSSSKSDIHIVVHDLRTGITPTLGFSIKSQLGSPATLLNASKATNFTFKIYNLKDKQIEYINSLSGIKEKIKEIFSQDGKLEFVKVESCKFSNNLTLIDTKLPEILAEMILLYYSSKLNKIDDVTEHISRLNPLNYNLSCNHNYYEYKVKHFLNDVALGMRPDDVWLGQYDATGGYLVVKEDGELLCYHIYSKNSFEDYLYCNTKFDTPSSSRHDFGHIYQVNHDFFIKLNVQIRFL

Uridine 5′-(2,3,4-tri-O-acetyl-6-azido-6-deoxy-α-D-glucopyranosyl)diphosphate bistriethylammonium salt [UDP-6-N3-Glu]
efficiency of transfer to 5-hmC-containing duplex DNA relative to UDP-Glu (wild-type βGT): as efficiently as with UDP-Glu
time for 6-N3-glucose transfer reaction to finish (wild-type βGT; 11-mer duplex DNA with 5-hmC, as low as 1% enzyme concentration): ≤ 5 min

β-6-azide-glucosyl-5-hydroxymethyl-cytosine [N3-5-gmC]
primer extension on modified template with streptavidin (Taq polymerase): completely stalled
MspI digestion, fully-modified DNA (MspI [1]): block MspI digestion completely
MspI digestion, hemi-modified DNA (MspI [1]): can be protected from digestion
TaqαI digestion, hemi-modified DNA (TaqαI; hemi-hydroxymethylation): cannot block digestion as well as the fully-modified one
TaqαI digestion, fully-modified DNA (TaqαI; modified on both strands): only partially

β-glucosyl-5-hydroxymethyl-cytosine [5-gmC]
MspI cutting of modified CC*GG site (MspI [2]): completely blocks
MspI cutting of modified CC*GG site (MspI [2]; listed as C(5-gmC)GG): completely blocked
HpaII cutting of modified CC*GG site (HpaII): does not cut
interference with polymerization reaction [3]: does not exhibit any interference
